Experiment [1] addresses T1, D. melanogaster STING (dSTING) (Drosophila melanogaster, UniProt A0A0B4LFY9).
T1 sequence (A0A0B4LFY9 1-343): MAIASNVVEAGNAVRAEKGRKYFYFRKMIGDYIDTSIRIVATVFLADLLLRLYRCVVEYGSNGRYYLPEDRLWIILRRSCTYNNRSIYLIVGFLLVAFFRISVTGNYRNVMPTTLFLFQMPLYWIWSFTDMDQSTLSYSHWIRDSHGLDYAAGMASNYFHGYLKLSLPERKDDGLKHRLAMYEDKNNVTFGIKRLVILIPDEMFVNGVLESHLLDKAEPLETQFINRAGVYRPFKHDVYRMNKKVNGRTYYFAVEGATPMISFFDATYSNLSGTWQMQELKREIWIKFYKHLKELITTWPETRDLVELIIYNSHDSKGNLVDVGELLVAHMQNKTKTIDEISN
In words: microscale thermophoresis in lysates of transfected S2 cells. The class given is biochemical.

Experiment [2] has as its system D. serrata STING. Described as above. It is filed as biochemical, Drosophila serrata.

With `Nc1nc2c(ncn2[C@@H]2O[C@@H]3COP(=O)(O)O[C@@H]4[C@H](O)[C@@H](COP(=O)(O)O[C@H]3[C@H]2O)O[C@H]4n2cnc3c(=O)[nH]c(N)nc32)c(=O)[nH]1` [2′3′-c-di-GMP], the Kd in experiment [1] amounted to 28.2 µM; in experiment [2] it was 36.7 µM.

The values are drawn from PMC11781366 (Immunity, 2023).
